Where “and” joins values, the source holds several entries; their conditions need not be identical. Equal values may be shown once. Entries after “also recorded” stand apart in the source; their conditions may differ.
What was measured:
[1] = system: NNK-induced lung preneoplasias and tumors; experiment: NNK-induced lung tumor model for chemoprevention, second experiment; type: in vivo, mice
Procedure: To confirm these findings, in a second experiment, in which 24 mg NNK was given (3 mg by ip injection, twice a wk, ×4 wks,), this was followed by one week rest and then immediate treatment with 5 mg/kg CS3D or CS3M, 3 daily injections per week, for 8 weeks. Then 1 week, 8 weeks, or 20 weeks after the end of the treatment course ([…], 21, and 33 weeks after beginning the NNK exposure), necropsy was performed. […] Lung tumors were evaluated by inspecting formalin-fixed lungs visually and by histology after H & E staining. […] Tumor burden (detected by neoplastic growths [adenomas] observed in lung sections) was also assessed at the week 1 timepoint after treatment. Consistent with reduction in preneoplasia, we observed a decrease in the average number of tumors (a 60% reduction in tumors in the CS3D-treated animal) (FIG. 14A).
The chemopreventive effect of CS3D compared to CS3M on lung tumor development was studied in an NNK-induced immunocompetent lung tumor model using the tobacco carcinogen, 4-(methylnitrosamino)-1-(3-pyridyl)-1-butanone, CAS Reg. No. 64091-91-4 (NNK) in mice. The advantages of this model are: NNK is an inducer of KRAS mutations, it is known to induce lung cancers in mice and humans, and the model is immunocompetent. In addition, this is a useful model for studying chemoprevention after exposure to a carcinogenic agent (Hecht S S, et al, Cancer Res. (1980) 40(2):298-302).
After four weeks of NNK exposure, mice are then dosed IV 2 times per week with CS3D or CS3M (5 mg/kg) for eight weeks. The mice are sacrificed after at one week, 8 weeks, and 20 weeks after the end of oligonucleotide dosing to examine lungs. Lungs are formalin-inflated and surface tumors are enumerated visually under a dissecting microscope. The area of each tumor is measured with a analysis tool built in the imaging software LAS v4.7 (Leica). Lungs are also sectioned and examined histologically by hematoxylin and eosin staining for counting the preneoplasia and tumors.

[2] = system: Myc and Bcl-xL mRNA in NSCLC cells; conditions: 300 nM one transfection, 10 ng/ml EGF, 1 hr after EGF
[3] = system: c-Myc in 201T-derived tumors; experiment: c-Myc expression in 201T xenograft tumors (Western blot, RT-qPCR); type: in vivo, nude mice
H3225 cells = experiment: MTS cell viability assay, H3225; type: cell-based, human
[4] = system: cleaved caspase-3 in H1975 xenografts; experiment: IHC of cleaved caspase-3 in H1975 xenografts at end of treatment; type: in vivo, nude mice; conditions: after last day of treatment (day 14)
Description: For mRNA levels in tumor lysates, CS3D produced a 60-70% reduction of c-Myc gene expression relative to GAPDH compared to CS3M (FIG. 7E). […] Some cleaved caspase 3 staining was localized in nuclei, where caspase-3 is known to be active. Some caspase 3 staining was also evident in fibroblasts.
Immunohistochemical analysis: Tumors were excised for immunohistochemical (IHC) staining; 5-μm (micron) sections were cut from formalin-fixed paraffin-embedded tissue blocks, deparaffinized and rehydrated using successive washes of xylene followed by ethanol. Antigen retrieval was performed in a microwave oven (for 20 minutes) in an unmasking solution containing sodium citrate buffer followed by peroxidase blocking in 3% hydrogen peroxide. The sections were incubated in ABC blocking buffer (Vector laboratories Inc, Burlingame, California) for 1 hour at room temperature. Sections were then stained with H&E (hematoxylin and eosin) or subjected to sequential incubations with different primary antibodies and peroxidase-conjugated goat anti-rabbit secondary antibodies. […] Staining was graded as low (<30% positive cells per field, scored as 1), moderate (30-60% positive cells per field, scored as 2) or high (>60% positive cells per field, scored as 3).

H1975 cells = experiment: Soft agar colony forming assay, H1975; type: cell-based, human
Description: 1 hr after treatment with EGF.
Following the transfection protocol described above, cells transfected with either CS3D or CS3M were detached from the plate using Trypsin-EDTA (Life Technologies) and seeded at a density of 2×10^4 cells/well (in a 6-well plate) in soft agar to determine the ability of cells to grow in an anchorage-independent setting. Sea Plaque Agarose (Lonza—Rockland, Maine) was used to prepare 0.8% base agarose layer and a 0.48% upper agarose layer containing the transfected cells. 1 ml of appropriate growth media was added into each well and incubated at growth conditions of 37° C. with 5% CO2. Media was replaced every 3-4 days and colony formation was monitored. After 15-20 days, the media was aspirated, and wells were incubated with crystal violet in 10% formalin for 1 h. Using a dissecting scope, colonies were photographed in a 6-well plate (with 4 quadrants/well) using ImageJ software analysis to automatically count colonies, using 35 pixels as a cut-off.

CS3D (DNA GATTTACGGGAAATGCSCATTTCCC; cyclic decoy with two hexaethylene glycol linkers, further chemistry not given here)
toxicity (body weight, behavior, liver and spleen) ([1]; 5 mg/kg for 8 weeks): no body weight changes were observed; also recorded: no toxicity observed | higher count of preneoplasia ([1]; 8 weeks after treatment ended, vs CS3M): 43% | lower number of adenomas ([1]; 8 weeks post-treatment, vs CS3M): 52% | reduction in average number of tumors per animal ([1]; 20 weeks after end of treatment, vs CS3M): approximately 40% and 42% | lower tumor size ([1]; 20 weeks post-treatment, vs CS3M): 49.8% and 50% | fewer preneoplasias on average per animal ([1]; week 1 after 8 week treatment, 5 mg/kg, vs CS3M): approximately 25% | reduction in average number of tumors ([1]; week 1 after 8 week treatment, vs CS3M): 60% | reduction of Bcl-Xl mRNA expression in response to EGF [2]: ≥ 60% | reduction of c-Myc mRNA expression in response to EGF [2]: ≥ 60% | toxicity in normal cells (normal lung fibroblasts): minimal | IC50 in normal lung fibroblasts and bronchial epithelial cells relative to tumor cells (normal lung fibroblasts; fold higher than in NSCLC cell lines): 100 fold | mean decrease of c-Myc protein ([3]; 201T xenografts, CS3D vs CS3M): 70% | reduction of c-Myc gene expression (mRNA) relative to GAPDH ([3]; tumor lysates of 201T and H1975 xenografts (FIG. 7E), compared to CS3M): 60-70% | IC50 (H3225 cells): 300 nM | fields scoring high level of cleaved caspase-3 [4]: 83% | disruption of anchorage-independent growth (H1975 cells; 300 nM single transfection, at 15 days, H1975, compared to CS3M): 70% | reduction of colony formation in soft agar (H1975 cells; one transfection, H1975 (FIG. 4A)): 65%

— US11932850B2, “Cancer chemoprevention with STAT3 blockers” (Jill M. Siegfried, LLC, priority 2018, dated 2024)
